In PubChem BioAssay (NCI):
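The compound was tested at five concentrations on cells cultured in 96-well plates, with a 48-hour exposure period. Here, GI50 denotes the concentration required for 50% inhibition of growth. Definition used: TGI = concentration required for complete inhibition of growth.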

Assays:
Assay in all cases: NCI-60 cell line screen, 48 h
[1] = tested on: OVCAR-5 ovarian
[2] = tested on: OVCAR-4 ovarian
[3] = tested on: COLO 205 colon
[4] = tested on: EKVX NSCLC
[5] = tested on: SK-MEL-28 melanoma
[6] = tested on: SNB-19 CNS
[7] = tested on: UO-31 renal
[8] = tested on: K-562 leukemia
[9] = tested on: A549 NSCLC
[10] = tested on: MDA-MB-231 breast
[11] = tested on: MOLT-4 leukemia
[12] = tested on: KM12 colon
[13] = tested on: MALME-3M melanoma
[14] = tested on: HOP-92 NSCLC
[15] = tested on: NCI-H522 lung
[16] = tested on: MDA-MB-435
[17] = tested on: 786-0 renal
[18] = tested on: BT-549 breast
[19] = tested on: HL-60(TB) leukemia
[20] = tested on: SN12C renal
[21] = tested on: NCI-H23 lung
[22] = tested on: NCI/ADR-RES ovarian
[23] = tested on: HOP-62 NSCLC
[24] = tested on: UACC-257 melanoma
[25] = tested on: PC-3 prostate
[26] = tested on: OVCAR-8 ovarian
[27] = tested on: HS 578T breast
[28] = tested on: HCT-15 colon
[29] = tested on: RXF 393 renal
[30] = tested on: SF-268 CNS
[31] = tested on: TK-10 renal
[32] = tested on: CAKI-1 renal
[33] = tested on: HCT-116 colon
[34] = tested on: SF-539 CNS
[35] = tested on: NCI-H226 lung
[36] = tested on: ACHN renal
[37] = tested on: SK-MEL-2 melanoma
[38] = tested on: SNB-75 CNS
[39] = tested on: SK-OV-3 ovarian
[40] = tested on: U251 CNS
[41] = tested on: MCF7 breast
[42] = tested on: NCI-H460 lung
[43] = tested on: M14 melanoma
[44] = tested on: CCRF-CEM leukemia
[45] = tested on: HT29 colon
[46] = tested on: T-47D breast

CC1CCC2C(CN(CC3=C(C(F)(F)F)OC4OC5(C)CCC6C(C)CCC3C46OO5)CC3=C(C(F)(F)F)OC4OC5(C)CCC6C(C)CCC3C46OO5)=C(C(F)(F)F)OC3OC4(C)CCC1C32OO4 (configuration not stated)
GI50 [1]: 15.3 µM
TGI [1]: > 100 µM
GI50 [2]: 10.2 µM
TGI [2]: 33.4 µM
GI50 [3]: 7.64 µM
TGI [3]: 28.6 µM
GI50 [4]: 19.5 µM
TGI [4]: 49.2 µM
GI50 [5]: 30.1 µM
TGI [5]: > 100 µM
GI50 [6]: 30.8 µM
TGI [6]: > 100 µM
GI50 [7]: 29.1 µM
TGI [7]: > 100 µM
GI50 [8]: 5.58 µM
TGI [8]: 22.1 µM
GI50 [9]: 12.1 µM
TGI [9]: 66.3 µM
GI50 [10]: 13.4 µM
TGI [10]: 36.6 µM
GI50 [11]: 9.11 µM
TGI [11]: 39.9 µM
GI50 [12]: 3.72 µM
TGI [12]: 10.1 µM
GI50 [13]: 6.73 µM
TGI [13]: 23 µM
GI50 [14]: 6.3 µM
TGI [14]: 33.4 µM
GI50 [15]: 16.2 µM
TGI [15]: 42.2 µM
GI50 [16]: 4.54 µM
TGI [16]: 17.3 µM
GI50 [17]: 8.48 µM
TGI [17]: 21.9 µM
GI50 [18]: 13.1 µM
TGI [18]: 34.1 µM
GI50 [19]: 3.12 µM
TGI [19]: 10.7 µM
GI50 [20]: 18.7 µM
TGI [20]: 48.9 µM
GI50 [21]: 6.04 µM
TGI [21]: 19.7 µM
GI50 [22]: 26.8 µM
TGI [22]: 73.2 µM
GI50 [23]: 28.3 µM
TGI [23]: 71.9 µM
GI50 [24]: 27.1 µM
TGI [24]: > 100 µM
GI50 [25]: 3.99 µM
TGI [25]: 20.1 µM
GI50 [26]: 14.1 µM
TGI [26]: 76.4 µM
GI50 [27]: 17.9 µM
TGI [27]: 61.4 µM
GI50 [28]: 10 µM
TGI [28]: 25.7 µM
GI50 [29]: 2.45 µM
TGI [29]: 22.4 µM
GI50 [30]: 18.7 µM
TGI [30]: 48.4 µM
GI50 [31]: 15.4 µM
TGI [31]: 30 µM
GI50 [32]: 5.87 µM
TGI [32]: 18.4 µM
GI50 [33]: 11.6 µM
TGI [33]: 24.5 µM
GI50 [34]: 11.9 µM
TGI [34]: 38.6 µM
GI50 [35]: 19.4 µM
TGI [35]: 57.8 µM
GI50 [36]: 1.81 µM
TGI [36]: 3.49 µM
GI50 [37]: 36.6 µM
TGI [37]: > 100 µM
GI50 [38]: 81.6 µM
TGI [38]: > 100 µM
GI50 [39]: 35.2 µM
TGI [39]: > 100 µM
GI50 [40]: 5.12 µM
TGI [40]: 19.2 µM
GI50 [41]: 20.9 µM
TGI [41]: 59.9 µM
GI50 [42]: 12.9 µM
TGI [42]: 30 µM
GI50 [43]: 22.2 µM
TGI [43]: 59.7 µM
GI50 [44]: 4.8 µM
TGI [44]: 28 µM
GI50 [45]: 25.1 µM
TGI [45]: > 100 µM
GI50 [46]: 3.97 µM
TGI [46]: 27.2 µM
